Assay results published in US20260345524A1, “TARGETING KDM2A TO ENHANCE IMMUNE RESPONSIVENESS TO CANCERS” (The Board of Trustees of the Leland Stanford Junior …, priority 2023, published 2026).

Columns and labels:
[1] = test system: NSD1-inhibited MOC1 tumors; test: Luciferase expressing MOC1 tumors, EZH2 inhibitor treatment, bioluminescence imaging; format: in vivo, mouse (B6 wild type); settings: 200 mg/kg daily, luminescence day 10
Procedure: FIG. 14. Luciferase expressing MOC1 cells, transduced with scramble control shRNA, NSD1 shRNA, or both NSD1 shRNA and KDM2A shRNA, were injected to B6 wild type mice subcutaneously. The mice were treated 24 hours later with or without EZH2 inhibitor (EPZ-6438) at a dose of 200 mg/kg daily, with or without anti-PD-1 antibody (200 μg/mouse). Bioluminescence imaging was used to assess tumor burden; quantified luminescence signal on day 10 is shown in photons per second. *p<0.05.

[2] = test system: histone acetyl transferases; settings: cited from earlier work
[3] = not told; cited from earlier work
[4] = test system: other JmjC lysine demethylases; settings: KDM2A/7A versus other JmjC lysine demethylases; cited from earlier work
methyl transferases = settings: cited from earlier work
KDM2A [5] = settings: cited from earlier work
CTLA4 = settings: cited from earlier work
HNSCC = settings: human, in vivo; cited from earlier work
KDM2A [6] = settings: cited from earlier work; remark: listed apart in the source
FaDu tumor spheroids = test: Spheroid T cell infiltration assay, CD19-CAR T cells co-cultured with CD19-expressing tumor spheroids; format: cell-based, human; settings: daminozide 1.5 μM, added the day before T cells; 3 days co-culture
Source text: FIG. 3A-3G. KDM2A inhibition reverses the immune cold phenotype induced by NSD1 inactivation and induces T cell infiltration into the tumor microenvironment. (A) Overview and illustration of experiment workflow. Tumor spheroids were established from HNSCC tumor cells transfected to express truncated CD19 on the cell surface and grown in submerged Matrigel. The spheroids were co-cultured with CD19-CAR-T cells for three days and then isolated for analysis by confocal microscopy. (B) Assessment by qRT-PCR of CXCL9 and CXCL10 expression after CXCL9 or CXCL10 overexpression (OE) in FaDu cells transduced to express shRNA targeting NSD1 (NSD1-sh). (C) Representative images of tumor spheroids after co-cultured with CD19-CAR-T cells for 3 days. Ctrl=vector control; NSD1-sh=shRNA targeting NSD1; CXCL9-OE=overexpression construct for CXCL9; CXCL10-OE=overexpression construct for CXCL10; KDM2A-sh=shRNA targeting KDM2A. Scale bar=50 um. (D) Representative images of tumor spheroids stained with anti-CD3 antibody (red) and DAPI (blue). […] (E) Quantification of CD3+ cells per 100 cells in the spheroids. […] (G) Quantification of CD3^+ cells per 100 cells in the spheroids. […]
Spheroid T cellinfiltration assay. […] After 3 days of co-culture, the spheroid Matrigel domes were harvested and analyzed by microscopy. […] The stained samples were mounted on glass slides and analyzed by LSM700 confocal microscopy (Zeiss). […]

CTLA-4 = settings: cited from earlier work
HPV-unrelated HNSCC = test: neoadjuvant pembrolizumab phase II window-of-opportunity trial (NCT02296684); format: in vivo, human
Procedure: FIGS. 1A-1D: NSD1 inactivation downregulates the expression of CXCL9 and CXCL10 in HNSCC. RNA expression and genomic sequencing data from a multicenter, phase II, window-of-opportunity trial (NCT02296684) (23) was examined for CXCL9 and CXCL10 expression and NSD1 mutations. In this trial, neoadjuvant pembrolizumab was administered to patients with locally advanced, resectable, HPV-unrelated HNSCC two to three weeks prior to definitive surgical resection. (A) Comparison of CXCL9 and CXCL10 baseline expression to pathologic tumor response (pTR), as defined in (23), to the anti-PD-1 antibody pembrolizumab. Circles represent responders. ▴ A represent non-responders with wild-type NSD1. Gray triangles represent non-responders with mutated NSD1. (B) Tumor histology from the two patients in the trial that had tumors with NSD1 mutations. Histology of NSD wild-type tumors is also shown. […]
CXCL9 and CXCL10 in human HNSCC datasets. […] The dataset was subsequently analyzed using Seurat (25): The series matrix was loaded into a Seurat object and was filtered to exclude poor quality or dying cells by removing cells with a mitochondrial genome fraction of 0.4 or greater as well as those with a unique feature count of fewer than 200 genes. […] Expression of CXCL9 and CXCL10 was analyzed within samples that had been profiled using whole exome sequencing, such that the NSD1 mutation status was known. […]

CCN(c1cc(-c2ccc(CN3CCOCC3)cc2)cc(C(=O)NCc2c(C)cc(C)[nH]c2=O)c1C)C1CCOCC1 [EPZ-6438]
tumor growth in WT mice (EZH2 inhibition) [1]: does reduce tumor growth in WT mice but not to the extent that KDM2A inhibition appeared to achieve

CC(=O)N1c2ccccc2[C@@](C#N)(c2ccccc2)[C@@H]1c1cncc(CCCCCCCN2CCCC2)c1 [KDM2A/7A-IN-1]
activity on histone acetyl transferases [2]: inactive
cell permeability [3]: cell-permeable
selectivity over other JmjC lysine demethylases [4]: 75 fold
activity on methyl transferases (methyl transferases): inactive
IC50 (KDM2A [5]): 160 nM

Tremelimumab: fully humanized CTLA4 antibody
toxicity (CTLA4; 10 mg/kg monthly vs 15 mg/kg every 3 months, phase II): toxicity was doubled
sustained plasma level in the majority of responders (CTLA4; at one month): > 30 µg/mL
dose at which objective responses were evident (CTLA4; single antibody infusion, 0.01 mg/kg to 15 mg/kg): ≥ 3 mg/kg

nivolumab: anti-PD-1 antibody
clinical response in recurrent/metastatic HNSCC (HNSCC): impressive responses in recurrent/metastatic HNSCC, though only in a minority of patients

CN(C)NC(=O)CCC(=O)O [daminozide]
effect on KDM2A histone demethylation (KDM2A [6]): significantly abrogate the effect of KDM2A on histone demethylation
T cell infiltration into tumor spheroids (CD3+ cells per 100 cells) (FaDu tumor spheroids): increased the number of infiltrating T cells into tumor spheroids

ipilimumab: fully humanized CTLA4 antibody
grade III/IV enterocolitis (CTLA-4; 10 mg/kg): ~ 15%
hepatitis (CTLA-4; additional irAEs): 5-10%
hypophysitis (CTLA-4; additional irAEs): 5%
leucopenia (CTLA-4; additional irAEs): < 2%
pancreatitis (CTLA-4; additional irAEs): < 2%
rash/pruritus (CTLA-4; additional irAEs): > 50%
uveitis (CTLA-4; additional irAEs): < 2%

pembrolizumab: anti-PD-1 antibody
response of tumors with low CXCL9 or CXCL10 expression (HPV-unrelated HNSCC; neoadjuvant, two to three weeks prior to surgery): None of the tumors with low CXCL9 or CXCL10 expression exhibited response
response of patients with NSD1 inactivating mutations (HPV-unrelated HNSCC; two patients): Both were non-responders
clinical response in recurrent/metastatic HNSCC (HNSCC): impressive responses in recurrent/metastatic HNSCC, though only in a minority of patients
